Tested on: HepG2 cells
Assay: Lipid droplets formation in HepG2 cells, formula of fenugreek extract (oil red-O / MTS index)
Assay type: cell-based
Conditions: lipid droplets induced group = 100%; treated 16 hours, then lipid droplets induced reagent 16 hours
Procedure: (1) HepG2 cells were seeded at 2.5×10^4 cells/well and incubated for 24 hours. (2) The incubated cells were divided into the following groups: Control group (CG) was added with 1% DMSO to treat the HepG2 cells for 16 hours, and then treated with cell culture medium for 16 hours. Lipid droplets induced group (LDIG) was added with 1% DMSO to treat the HepG2 cells for 16 hours, and then treated with 500 nM lipid droplets induced reagent for 16 hours. […] In addition, in a preferred embodiment, Vitamin E, SiO2, MAG and Fibersol-2 ® may be additionally added as desired. Each experiment group was respectively added to treat the HepG2 cells for 16 hours, and then treated with lipid droplets induced reagent for 16 hours. [table] (3) The above groups were examined by MTS assay and oil red-O stain, and the oil red OD value/MTS OD value was used as the index of lipid droplets.

SMILES: NCCS(=O)(=O)O [experiment group 7, taurine]
- percentage of the lipid droplet formation: 72.4%

— US20200108112A1, “METHOD FOR PREPARING FENUGREEK EXTRACT AND PHARMACEUTICAL COMPOSITION COMPRISING FENUGREEK EXTRACT” (PRINCE PHARMACEUTICAL CO., LTD., priority 2017, published 2020)
